target: T1, GLP-1R (Homo sapiens, UniProt P43220); test: GLP-1R activation cAMP assay (Assay 1 or Assay 2); type: cell-based; conditions: cAMP increase in CHO cells stably expressing GLP-1R; compounds run on one of the two cAMP assays
T1 construct: host or cells: CHO cells
Summary of the method: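 EC50 values come from a sigmoidal fit of HTRF-detected cAMP rise versus log agonist concentration. GLP-1R-expressing CHO cells, equilibrated 1 h at 37 °C in HBSS with HEPES and BSA, received a 10-point compound dose series for 30 min before detection.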

T1 sequence (P43220 24-463): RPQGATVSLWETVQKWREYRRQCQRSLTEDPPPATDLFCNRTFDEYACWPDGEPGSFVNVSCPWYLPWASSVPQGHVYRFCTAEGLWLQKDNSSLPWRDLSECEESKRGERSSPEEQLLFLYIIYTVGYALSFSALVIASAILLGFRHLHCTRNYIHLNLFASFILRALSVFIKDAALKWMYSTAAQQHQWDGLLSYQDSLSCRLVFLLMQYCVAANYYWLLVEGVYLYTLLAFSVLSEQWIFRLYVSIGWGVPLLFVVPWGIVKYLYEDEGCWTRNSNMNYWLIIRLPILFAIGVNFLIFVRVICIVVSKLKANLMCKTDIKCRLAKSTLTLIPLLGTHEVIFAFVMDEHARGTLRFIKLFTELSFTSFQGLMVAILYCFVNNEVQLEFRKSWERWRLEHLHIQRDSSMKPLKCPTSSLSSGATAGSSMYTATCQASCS

EC50 [nM]	Compound
0.125	O=C(O)c1ccc2nc(Cc3cc(F)c(-c4cccc(OCc5ccc(Cl)s5)n4)cc3F)n(C[C@@H]3CCO3)c2c1 [Example 317, (S)-2-(4-(6-((5-chlorothiophen-2-yl)methoxy)pyridin-2-yl)-2,5-difluorobenzyl)-1-(oxetan-2-ylmethyl)-1H-benzo[d]imidazole-6-carboxylic acid]
0.06	Cn1cc(-c2cnc(COc3cccc(-c4cc(F)c(Cc5nc6ccc(C(=O)O)cc6n5C[C@@H]5CCO5)cc4F)n3)s2)cn1 [Example 79, 2-[[2,5-difluoro-4-[6-[[5-(1-methylpyrazol-4-yl)thiazol-2-yl]methoxy]-2-pyridyl]phenyl]methyl]-3-[[(2S)-oxetan-2-yl]methyl]benzimidazole-5-carboxylic acid]
21.3	N#Cc1ncc(COc2cccc(-c3cc(F)c(Cc4nc5ccc(C(=O)O)cc5n4C[C@@H]4CCO4)cc3F)n2)o1 [Example 168, (S)-2-(4-(6-((2-cyanooxazol-5-yl)methoxy)pyridin-2-yl)-2,5-difluorobenzyl)-1-(oxetan-2-ylmethyl)-1H-benzo[d]imidazole-6-carboxylic acid]
0.1	O=C(O)c1ccc2nc(Cc3cc(F)c(-c4cccc(OCc5cnc(C(=O)NC6CC6)cc5F)n4)cc3F)n(C[C@@H]3CCO3)c2c1 [Example 245, (S)-2-(4-(6-((6-(cyclopropylcarbamoyl)-4-fluoropyridin-3-yl)methoxy)pyridin-2-yl)-2,5-difluorobenzyl)-1-(oxetan-2-ylmethyl)-1H-benzo[d]imidazole-6-carboxylic acid]
2	NC(=O)c1ncc(COc2cccc(-c3cc(F)c(Cc4nc5ccc(C(=O)O)cc5n4C[C@@H]4CCO4)cc3F)n2)s1 [Example 165, (S)-2-(4-(6-((2-carbamoylthiazol-5-yl)methoxy)pyridin-2-yl)-2,5-difluorobenzyl)-1-(oxetan-2-ylmethyl)-1H-benzo[d]imidazole-6-carboxylic acid]
0.61	O=C(O)c1ccc2nc(Cc3cc(F)c(-c4cccc(OCc5cc6n(n5)CC5(CC5)C6)n4)cc3F)n(C[C@@H]3CCO3)c2c1 [Example 75, (S)-2-(4-(6-((4′,6′-dihydrospiro[cyclopropane-1,5′-pyrrolo[1,2-b]pyrazol]-2′-yl)methoxy)pyridin-2-yl)-2,5-difluorobenzyl)-1-(oxetan-2-ylmethyl)-1H-benzo[d]imidazole-6-carboxylic acid]

Further lines, the compound ahead of its results:

Compound	EC50 [nM]
COc1nnc(COc2nc(-c3cc(F)c(Cc4nc5c(Cl)cc(C(=O)O)cc5n4[C@@H]4COCC4(C)C)cc3F)ccc2F)s1 [Example 367, (S)-4-chloro-2-(2,5-difluoro-4-(5-fluoro-6-((5-methoxy-1,3,4-thiadiazol-2-yl)methoxy)pyridin-2-yl)benzyl)-1-(4,4-dimethyltetrahydrofuran-3-yl)-1H-benzo[d]imidazole-6-carboxylic acid]	0.235
Cn1cc(C#Cc2ccc(COc3cccc(-c4cc(F)c(Cc5nc6ccc(C(=O)O)cc6n5C[C@@H]5CCO5)cc4F)n3)cn2)cn1 [Example 147, (S)-2-(2,5-difluoro-4-(6-((6-((1-methyl-1H-pyrazol-4-yl)ethynyl)pyridin-3-yl)methoxy)pyridin-2-yl)benzyl)-1-(oxetan-2-ylmethyl)-1H-benzo[d]imidazole-6-carboxylic acid]	0.6
CNC(=O)c1cc(Cl)c(COc2cccc(-c3cc(F)c(Cc4nc5c(F)cc(C(=O)O)cc5n4C[C@@H]4CCO4)cc3C)n2)cn1 [Example 394, (S)-2-(4-(6-((4-chloro-6-(methylcarbamoyl)pyridin-3-yl)methoxy)pyridin-2-yl)-2-fluoro-5-methylbenzyl)-4-fluoro-1-(oxetan-2-ylmethyl)-1H-benzo[d]imidazole-6-carboxylic acid]	0.62
COc1nnc(COc2nc(-c3ccc(Cc4nc5c(F)cc(C(=O)O)cc5n4[C@@H]4COCC4(C)C)c(F)c3)ccc2F)s1 [Example 429, (S)-1-(4,4-dimethyltetrahydrofuran-3-yl)-4-fluoro-2-(2-fluoro-4-(5-fluoro-6-((5-methoxy-1,3,4-thiadiazol-2-yl)methoxy)pyridin-2-yl)benzyl)-1H-benzo[d]imidazole-6-carboxylic acid]	0.024
